Data on 8 compounds can be found in PubChem BioAssay (NCI).

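The compound was tested at five concentrations on cells cultured in 96-well plates, with a 48-hour exposure period. GI50 = concentration required for 50% inhibition of growth. TGI: total growth inhibition.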 Some results are limits rather than exact numbers.

Among the test systems are EKVX NSCLC; NCI-H460 lung; UO-31 renal; A498 renal; SF-539 CNS; IGROV1 ovarian; MCF7 breast; OVCAR-3 ovarian; OVCAR-5 ovarian; TK-10 renal.
Common to all, as to assay: growth of human tumour cells (NCI), 48 h

For `CC1(C)OC2C(CO)OC(n3ccc(N)nc3=O)C2O1` (stereo not given), the TGI with EKVX NSCLC, in the experiment with NCI-H460 lung, with UO-31 renal, with A498 renal, in the experiment on SF-539 CNS and in the experiment with IGROV1 ovarian was over 100 µM throughout. Also, the TGI in the experiment on MCF7 breast, with OVCAR-3 ovarian, in the experiment on OVCAR-5 ovarian and in the experiment with TK-10 renal was over 100 µM in each case.
Regarding `CCCCN(CC)CCCCCCCCCCN1CCCc2cc(OC)ccc21`, the GI50 in the experiment with EKVX NSCLC is 3.57 µM; with NCI-H460 lung, 2.52 µM; in the experiment on UO-31 renal, 2.08 µM; in the experiment on A498 renal it was 2.36 µM; in the experiment on SF-539 CNS, 3.32 µM; in the experiment with IGROV1 ovarian, 3.18 µM. The GI50 with MCF7 breast is 1.8 µM; with OVCAR-3 ovarian it was 3.35 µM; in the experiment on OVCAR-5 ovarian it was 6.37 µM; in the experiment with TK-10 renal, 1.89 µM. Also, the TGI is 25.4 µM with EKVX NSCLC; 6.6 µM in the experiment with NCI-H460 lung; 11.3 µM in the experiment on UO-31 renal; 9.54 µM in the experiment with A498 renal; 9.35 µM with SF-539 CNS; 12.9 µM in the experiment on IGROV1 ovarian. Also, the TGI in the experiment on MCF7 breast is 3.59 µM; with OVCAR-3 ovarian it was 11.3 µM; in the experiment on OVCAR-5 ovarian, 24.1 µM; with TK-10 renal it was 3.91 µM.
As for `O=[N+]([O-])/C=C/c1cc2ccc3ccccc3c2[nH]1`, the TGI came to 5.33 µM in the experiment with EKVX NSCLC; 5.61 µM with NCI-H460 lung; 3.05 µM with UO-31 renal; 3.16 µM with A498 renal; 4.99 µM in the experiment on SF-539 CNS; 1.89 µM in the experiment on IGROV1 ovarian. Further, the TGI came to 4.29 µM in the experiment on MCF7 breast, 3.11 µM in the experiment with OVCAR-3 ovarian, 4.55 µM in the experiment with OVCAR-5 ovarian and 3.08 µM in the experiment on TK-10 renal.
Consider `COc1cc2c3c(n(CCCN4CCCNCC4)c(=O)c2cc1OC)-c1cc2c(cc1C3=O)OCO2`, for which the GI50 in the experiment on EKVX NSCLC is 7.6 µM; with NCI-H460 lung, 0.0545 µM; with UO-31 renal it was 1.33 µM; in the experiment with A498 renal it was 1.16 µM; in the experiment on SF-539 CNS, 0.29 µM; with IGROV1 ovarian, 1.15 µM. For the same compound, the GI50 with MCF7 breast was 0.138 µM; in the experiment on OVCAR-3 ovarian, 2.52 µM; with OVCAR-5 ovarian it was 2.69 µM; in the experiment with TK-10 renal, 1.35 µM. For the same compound, the TGI in the experiment on EKVX NSCLC was determined as 15.5 µM; in the experiment with NCI-H460 lung, 6.47 µM; in the experiment with UO-31 renal it was 12.9 µM; with A498 renal, 13.5 µM; with SF-539 CNS, 1.37 µM; in the experiment with IGROV1 ovarian, 21.5 µM. Moreover, the TGI with MCF7 breast was 6.29 µM; in the experiment with OVCAR-3 ovarian, 7.66 µM; in the experiment on OVCAR-5 ovarian, 9.69 µM; in the experiment with TK-10 renal, 7.54 µM.
In the case of `Cc1cc(C(O)(c2ccc(Nc3ccccc3)cc2)c2ccc(Nc3ccc(S(=O)(=O)O)cc3)cc2)ccc1N` (stereo not given), the GI50 was 1.49 µM with EKVX NSCLC; 1.32 µM in the experiment with NCI-H460 lung; 1.12 µM in the experiment with UO-31 renal; 1.58 µM with A498 renal; 1.64 µM in the experiment on SF-539 CNS; 1.52 µM in the experiment on IGROV1 ovarian. Further, the GI50 was 0.478 µM with MCF7 breast, 1.11 µM in the experiment on OVCAR-3 ovarian, 1.4 µM with OVCAR-5 ovarian and 1.7 µM with TK-10 renal. The TGI with EKVX NSCLC was 3.89 µM; in the experiment on NCI-H460 lung, 2.78 µM; in the experiment with UO-31 renal, 2.38 µM; in the experiment with A498 renal, 3.51 µM; in the experiment with SF-539 CNS it was 3.32 µM; with IGROV1 ovarian it was 3.4 µM. The TGI in the experiment with MCF7 breast was 2.67 µM; in the experiment on OVCAR-3 ovarian it was 2.49 µM; with OVCAR-5 ovarian, 3 µM; in the experiment with TK-10 renal, 3.77 µM.
For the compound `O=C1c2cccnc2C(=O)c2c1c(C(=O)OCCc1ccccn1)c1ccccn21`, the GI50 with EKVX NSCLC is 0.305 µM; in the experiment on NCI-H460 lung, under 0.01 µM; in the experiment on UO-31 renal it was under 0.0117 µM; with A498 renal, under 0.0378 µM; with SF-539 CNS, 0.0334 µM; in the experiment with IGROV1 ovarian, 0.0421 µM. The GI50 in the experiment on MCF7 breast is under 0.01 µM; in the experiment with OVCAR-3 ovarian, 0.0305 µM; in the experiment on OVCAR-5 ovarian, 0.497 µM; with TK-10 renal it was 0.34 µM. In addition, the TGI came to 3.81 µM in the experiment with EKVX NSCLC; 0.079 µM in the experiment on NCI-H460 lung; 0.387 µM in the experiment on UO-31 renal; 0.824 µM with A498 renal; 0.432 µM in the experiment on SF-539 CNS; 4.73 µM in the experiment on IGROV1 ovarian. The TGI in the experiment on MCF7 breast came out at 0.147 µM; in the experiment on OVCAR-3 ovarian, 1.45 µM; in the experiment with OVCAR-5 ovarian it was 10.5 µM; in the experiment with TK-10 renal, 2.19 µM.
As for `NCCCNc1nc2ccc(Cl)cc2c2c(=O)c3cc(F)ccc3sc12`, the GI50 is 6 µM in the experiment with EKVX NSCLC; 1.73 µM with NCI-H460 lung; 3.35 µM in the experiment on UO-31 renal; 6.1 µM in the experiment on A498 renal; 3.79 µM with SF-539 CNS; 1.91 µM with IGROV1 ovarian. Moreover, the GI50 in the experiment on MCF7 breast is 1.68 µM; in the experiment on OVCAR-3 ovarian, 1.92 µM; in the experiment with OVCAR-5 ovarian, 3.38 µM; with TK-10 renal, 3.08 µM. In addition, the TGI in the experiment on EKVX NSCLC was 21.2 µM; in the experiment on NCI-H460 lung, 3.46 µM; in the experiment on UO-31 renal, 16.1 µM; in the experiment on A498 renal, 21 µM; with SF-539 CNS it was 14.3 µM; with IGROV1 ovarian, 5.1 µM. Further, the TGI in the experiment with MCF7 breast was determined as 3.42 µM; in the experiment on OVCAR-3 ovarian it was 4.03 µM; in the experiment with OVCAR-5 ovarian, 14.3 µM; in the experiment on TK-10 renal, 11.1 µM.
On to `Oc1ccc(Cc2ccc(O)c(C3CC(c4ccc(Cl)cc4)=NN3)c2)cc1C1CC(c2ccc(Cl)cc2)=NN1` (stereo not given), for which the GI50 was 3.2 µM in the experiment with EKVX NSCLC; 2.19 µM with NCI-H460 lung; 3.07 µM with UO-31 renal; 0.59 µM in the experiment with A498 renal; 4.69 µM with SF-539 CNS; 3.69 µM in the experiment with IGROV1 ovarian. Also, the GI50 in the experiment with MCF7 breast is 3.04 µM; in the experiment with OVCAR-3 ovarian it was 2.71 µM; in the experiment with OVCAR-5 ovarian, 4.45 µM; in the experiment on TK-10 renal it was 4.79 µM. The TGI in the experiment on EKVX NSCLC is over 100 µM; in the experiment with NCI-H460 lung, 8.87 µM; in the experiment on UO-31 renal, over 100 µM; in the experiment with A498 renal, over 34.3 µM; with SF-539 CNS it was over 40.2 µM; in the experiment with IGROV1 ovarian, over 72.3 µM. The TGI in the experiment on MCF7 breast is over 100 µM; with OVCAR-3 ovarian, 16.5 µM; in the experiment with OVCAR-5 ovarian, over 35.7 µM; with TK-10 renal, over 100 µM.
